# Patent US8187884B2, “Method of enhancing homologous recombination of somatic cells and method of constructing specific antibody” (Riken, priority 2002, dated 2012)
# Tests used:
# Assay type in all cases: cell-based, chicken
# [1] = test system: VJ region of antibody light chain gene in DT40 cell line (3H12); assay: MNase sensitivity (indirect end labeling, Southern blot) of antibody light chain gene chromatin after TSA treatment; conditions: 3H12 cells incubated 8 hours with TSA 0.625, 1.25, 2.5 ng/ml; MNase 0.04-1 U
# Method: Whether an alteration of the chromatin structure of the antibody light chain gene has actually been produced by TSA was analyzed using indirect end labeling with micrococcal nuclease (MNase) sensitivity as an indicator. Among chicken antibody alleles, one is VJ rearranged and the other one is not rearranged, but it is known that actually functional in antibody production is VJ rearranged one. However, since both sequences are almost identical, it is difficult to analyze VJ rearranged allele of wild type DT40 cells by simple application of indirect end labeling method. In order to solve this problem, on the side for which VJ recombination has not occurred, a mutant of which sequences in the vicinity of the region to be used as a Southern hybridization probe is deleted is generated, and an analysis of MNase sensitivity using this mutant was performed. […]
# The nuclear pellet was resuspended in 10 ml RSB (10 mM Tris-HCl (pH7.5), 10 mM NaCl, 1.5 mM MgCl2, 0.5 mM DTI. 1 mM PMSF). […] The DNA concentration of this nuclear suspension was measured by Hoechst 33258 binding, and suspension corresponding to 100 μg was made into […] with RSB. […]
# IgM(-) DT40 cells = assay: IgM expression by FACS (appearance frequency of IgM(+) cells); conditions: 1.25 ng/ml trichostatin A, measured every other week by FACS
# Method: (§1) At this time, a medium with 1.25 ng/ml trichostatin A added, and a medium with this not added, were prepared. This was incubated until single colonies appeared, and 5 clones (For No TSA, 6 clones) were transferred to a 6 well plate with 2 ml of fresh medium inside. At this time, incubation was continued by maintaining the original TSA concentration, and maintaining the cell concentration at 10^5-10^6 cells/ml.
# Culture fluid containing approximately 10^6 IgM(−) cells on which trichostatin A treatment was done by the method described in Embodiment 2 was put in 1.5 ml tubes, said cells were recovered by centrifuging (1000 g, 5 minutes), and suspended in 200 μl of staining buffer (PBS, 0.3% BSA). The cells were recovered by centrifuging again, then suspended in 200 μl of FITC-labeled anti chicken IgM antibody (BETHYL) diluted to 1/250 fold with a staining buffer, and reacted for 1 hour on ice. The cells were recovered by centrifuging, then the cells were washed by suspending them again in 200 μl of staining buffer, and centrifuging this. After repeating this washing step one more time, the cells were suspended in 100 μl of staining buffer containing 5 μg/ml of propidium iodide (Nakarai). The fraction of cells expressing IgM was calculated by measuring 10 000 cells with an EPICS ELITE ESP (Beckman Coulter). At this time, cells stained by propidium iodide were gated out as dead cells.
# DT40 cells = assay: Sequence analysis of antibody light chain gene variable region (somatic homologous recombination)
# Method: DT40 cells were incubated at 39.5 degrees C. in a CO2 constant temperature oven in 5% CO2. IMDM medium (Invitrogen) was utilized as the medium, with 10% FBS, 1% chicken serum, 100 units/ml penicillin, 100 μg/ml streptomycin, and 55 μM 2-mercaptoethanol added. Additionally, for trichostatin A (Wako Pure Chemical Industries), this was dissolved to 5 mg/ml in methanol for stock, and this was used by diluting in an appropriate medium until the final concentration was 1.25 ng/ml.
# as §1
# With the abovementioned method, live cells of DT40 that were incubated for 3 weeks were recovered by fluorescence-activated cell sorter. With an EPICS ELITE ESP, 100 000 live cells were collected in a 1.5 ml tube. […]
# PCR (Perkin Elmer 9600) was utilized for the amplification of the antibody light chain gene variable region. […] Plasmids were extracted, and the sequence was analyzed by an ABI PRI SM 377 DNA Sequencer (Perkin Elmer).
structure (smiles),measurement,setting,value
CC(/C=C/C(=O)NO)=C\[C@@H](C)C(=O)c1ccc(N(C)C)cc1 [trichostatin A],accessibility of MNase to the VJ regions,[1],increased
same,chromatin structure of the VJ regions,[1],relaxed
same,fraction of cells expressing IgM (IgM(+) cells),IgM(-) DT40 cells,increased time dependently
same,diversity of antibody light chain genes,DT40 cells; DT40 cells cultured 3 weeks with 1.25 ng/ml trichostatin A vs absence,rose markedly
same,number of sequence types of antibody light chain gene variable region among 42 samples,"DT40 cells; DT40 cells cultured 3 weeks with 1.25 ng/ml trichostatin A, 42 samples",16 types
